The source of these data is patent publication US9718813B2, “Imidazolin-5-one derivative useful as FASN inhibitors for the treatment of cancer” (Janssen Pharmaceutica, NV, priority 2013, dated 2017).

Experiment [1] addresses hFASN enzyme (full length) (Homo sapiens (Human), UniProt P49327). Description: Fatty Acid Synthase (FASN) Inhibition Scintillation Proximity Assay. The class given is biochemical. As to conditions: 3H-acetyl-CoA and malonyl-CoA substrates, SPA, mean if tested more than once. The method in brief: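 Full-length human FASN (300 ng, in-house purified) in 100 mM KH2PO4 pH 7.5, 1 mM DTT converts 3H-acetyl-CoA plus malonyl-CoA to hydrophobic 3H-palmitate, captured by streptavidin imaging beads and read on LEADseeker at 610 nm after ≥24 h. Compounds tested 0.01–30 μM; data normalized to plate controls and fitted to 4-parameter logistic curves.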
In general terms: Scintillation proximity formats need no separation of bound from free tracer.

For experiment [2], the target named is FASN Keto-reductase Domain (hFASN enzyme, full length) (Homo sapiens (Human), UniProt P49327). Description: Fatty Acid Synthase Keto-reductase Domain (FASN KR) Inhibition. The experiment is classed as biochemical. As to conditions: NADPH oxidation at 340 nm, ethyl acetoacetate substrate. The procedure: After 20 minutes incubation at room temperature the plate was measured again (T2).
The decrease in absorbance was calculated as (Absorbance before incubation T1)−(Absorbance following incubation T2).
Raw data generated by the instrument were normalized to % Controlmin values, which were calculated as: % Controlmin=100*(x−mLC)/(mHC−mLC)
where mLC and mHC were the means of the low control wells and high control wells on the plate, after manual exclusion of outliers. A plot of Controlmin versus test compound concentration was fitted to a 4-parameter logistic curve using a non-linear least squares regression method.

hFASN enzyme (full length), sequence (P49327 whole entry): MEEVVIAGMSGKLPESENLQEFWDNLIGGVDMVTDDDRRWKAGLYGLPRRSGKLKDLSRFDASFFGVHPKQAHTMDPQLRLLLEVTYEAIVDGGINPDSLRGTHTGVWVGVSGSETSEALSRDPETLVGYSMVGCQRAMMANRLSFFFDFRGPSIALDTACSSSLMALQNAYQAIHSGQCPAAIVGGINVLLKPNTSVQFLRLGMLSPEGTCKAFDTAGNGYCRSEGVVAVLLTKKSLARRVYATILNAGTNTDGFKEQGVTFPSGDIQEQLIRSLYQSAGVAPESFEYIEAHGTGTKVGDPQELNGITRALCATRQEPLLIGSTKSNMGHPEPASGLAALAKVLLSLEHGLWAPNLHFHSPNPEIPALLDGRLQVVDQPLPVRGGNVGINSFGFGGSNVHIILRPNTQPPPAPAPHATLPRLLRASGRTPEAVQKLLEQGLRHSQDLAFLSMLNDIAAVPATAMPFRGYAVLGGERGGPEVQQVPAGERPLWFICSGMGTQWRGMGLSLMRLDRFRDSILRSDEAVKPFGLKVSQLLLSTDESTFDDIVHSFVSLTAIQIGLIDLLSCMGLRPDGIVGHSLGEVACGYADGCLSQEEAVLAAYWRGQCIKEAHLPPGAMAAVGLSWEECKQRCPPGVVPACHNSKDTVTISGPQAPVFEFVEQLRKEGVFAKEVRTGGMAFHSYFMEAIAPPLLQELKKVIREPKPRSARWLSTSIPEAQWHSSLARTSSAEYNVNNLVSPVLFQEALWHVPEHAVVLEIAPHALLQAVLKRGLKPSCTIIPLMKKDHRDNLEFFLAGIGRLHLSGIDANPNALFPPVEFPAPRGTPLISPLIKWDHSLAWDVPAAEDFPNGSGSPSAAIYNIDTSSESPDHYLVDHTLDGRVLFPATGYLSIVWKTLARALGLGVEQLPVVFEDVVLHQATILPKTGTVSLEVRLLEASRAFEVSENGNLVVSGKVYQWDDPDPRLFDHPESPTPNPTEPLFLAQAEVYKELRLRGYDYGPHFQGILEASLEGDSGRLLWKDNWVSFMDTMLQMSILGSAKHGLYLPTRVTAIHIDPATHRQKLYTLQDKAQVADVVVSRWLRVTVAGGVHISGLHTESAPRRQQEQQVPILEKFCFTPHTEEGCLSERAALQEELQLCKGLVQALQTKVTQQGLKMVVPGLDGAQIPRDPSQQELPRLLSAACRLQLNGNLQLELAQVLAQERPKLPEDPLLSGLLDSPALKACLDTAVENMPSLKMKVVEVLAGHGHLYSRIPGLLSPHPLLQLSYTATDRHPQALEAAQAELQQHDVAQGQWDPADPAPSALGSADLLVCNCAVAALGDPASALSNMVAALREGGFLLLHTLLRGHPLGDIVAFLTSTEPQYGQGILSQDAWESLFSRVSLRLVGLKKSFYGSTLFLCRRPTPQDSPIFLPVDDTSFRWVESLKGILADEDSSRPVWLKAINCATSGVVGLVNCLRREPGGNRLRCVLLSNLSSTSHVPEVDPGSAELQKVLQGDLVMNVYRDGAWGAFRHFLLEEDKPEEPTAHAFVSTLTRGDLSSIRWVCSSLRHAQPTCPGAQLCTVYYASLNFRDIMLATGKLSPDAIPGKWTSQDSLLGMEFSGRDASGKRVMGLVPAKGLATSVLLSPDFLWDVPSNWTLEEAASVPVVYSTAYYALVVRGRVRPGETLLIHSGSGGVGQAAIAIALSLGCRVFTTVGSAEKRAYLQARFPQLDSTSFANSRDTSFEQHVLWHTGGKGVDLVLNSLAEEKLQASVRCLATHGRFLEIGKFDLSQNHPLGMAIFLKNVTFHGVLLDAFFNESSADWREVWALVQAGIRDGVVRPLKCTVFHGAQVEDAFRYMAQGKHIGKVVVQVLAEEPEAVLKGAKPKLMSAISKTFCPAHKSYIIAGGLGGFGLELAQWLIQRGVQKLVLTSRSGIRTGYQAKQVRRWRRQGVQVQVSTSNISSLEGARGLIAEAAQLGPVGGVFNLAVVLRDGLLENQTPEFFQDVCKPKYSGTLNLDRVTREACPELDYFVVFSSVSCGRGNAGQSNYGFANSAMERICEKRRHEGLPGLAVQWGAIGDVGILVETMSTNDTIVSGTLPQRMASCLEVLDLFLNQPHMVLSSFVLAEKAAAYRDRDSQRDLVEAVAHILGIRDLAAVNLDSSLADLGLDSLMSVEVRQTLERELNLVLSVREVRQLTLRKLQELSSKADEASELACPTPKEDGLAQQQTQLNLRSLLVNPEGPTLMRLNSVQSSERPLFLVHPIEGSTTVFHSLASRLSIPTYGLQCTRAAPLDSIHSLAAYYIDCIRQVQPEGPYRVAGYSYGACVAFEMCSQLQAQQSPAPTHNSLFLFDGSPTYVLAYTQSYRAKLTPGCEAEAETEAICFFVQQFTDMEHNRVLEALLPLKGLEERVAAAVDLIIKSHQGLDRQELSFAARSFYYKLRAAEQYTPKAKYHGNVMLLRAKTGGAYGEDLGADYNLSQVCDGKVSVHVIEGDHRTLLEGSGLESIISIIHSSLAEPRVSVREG
FASN Keto-reductase Domain (hFASN enzyme, full length), sequence (P49327 whole entry, the tested form may be a part): as the sequence (P49327 whole entry) above

For the compound `CC1(c2ccccc2)N=C(c2ccc(-c3ccc4occc4c3)cc2)N(C[C@@H]2CCN(C(=O)C3CC3)C2)C1=O` (mixture of isomers) [Compound 5, (4RS)-2-(4-(Benzofuran-5-yl)phenyl)-1-(((R)-1-(cyclopropanecarbonyl)pyrrolidin-3-yl)methyl)-4-methyl-4-phenyl-1H-imidazol-5(4H)-one], the IC50 was 155 nM in experiment [1] (read-out: Human FASN pIC50 (converted)) and 537 nM in experiment [2] (read-out: FASN Keto-reductase Domain pIC50 (converted)).

With `CC1(C)N=C(c2ccc(-c3ccc4occc4c3)cc2)N(C[C@@H]2CCN(C(=O)C3CC3)C2)C1=O` [Compound 3, (R)-2-(4-(benzofuran-5-yl)phenyl)-1-((1-(cyclopropanecarbonyl)pyrrolidin-3-yl)methyl)-4,4-dimethyl-1H-imidazol-5(4H)-one], the “Human FASN pIC50” value in experiment [1] is listed as 7.09. Moreover, in experiment [2], the “FASN Keto-reductase Domain pIC50” value turned out to be 6.33.

For `CC1(C)N=C(c2ccc(-c3ccc4cc(F)ccc4c3)cc2F)N(CC2CN(C(=O)C3CC3)C2)C1=O` [Compound 54, 1-((1-(cyclopropanecarbonyl)azetidin-3-yl)methyl)-2-(2-fluoro-4-(6-fluoronaphthalen-2-yl)phenyl)-4,4-dimethyl-1H-imidazol-5(4H)-one], the “Human FASN pIC50” value in experiment [1] was found to be 7.55. In addition, in experiment [2], the “FASN Keto-reductase Domain pIC50” value is on record as 6.55.

As for `CC1(C)N=C(c2ccc(-c3ccc4cccc(F)c4c3)cc2)N(C[C@@H]2CCN(C(=O)C3CC3)C2)C1=O` [Compound 41, (R)-1-((1-(cyclopropanecarbonyl)pyrrolidin-3-yl)methyl)-2-(4-(8-fluoronaphthalen-2-yl)phenyl)-4,4-dimethyl-1H-imidazol-5(4H)-one], the “Human FASN pIC50” value in experiment [1] came out at 7.34. Further, the “FASN Keto-reductase Domain pIC50” value in experiment [2] is 7.13.

As for `CC1(C)N=C(c2ccc(-c3ccc(-c4ccncc4)cc3)cc2)N(C[C@@H]2CCN(C(=O)C3CC3)C2)C1=O` [Compound 15, (R)-1-((1-(cyclopropanecarbonyl)pyrrolidin-3-yl)methyl)-4,4-dimethyl-2-(4′-(pyridin-4-yl)-[1,1′-biphenyl]-4-yl)-1H-imidazol-5(4H)-one], in experiment [1], the “Human FASN pIC50” value turned out to be 7.40. Moreover, the “FASN Keto-reductase Domain pIC50” value in experiment [2] amounted to 6.75.

Consider `CC1(C)N=C(c2ccc(-c3c[nH]c4ccccc34)cc2F)N(CC2CN(C(=O)C3CC3)C2)C1=O` [Compound 62, 1-((1-(cyclopropanecarbonyl)azetidin-3-yl)methyl)-2-(2-fluoro-4-(1H-indol-3-yl)phenyl)-4,4-dimethyl-1H-imidazol-5(4H)-one], for which the “Human FASN pIC50” value in experiment [1] is 6.69. Further, the “FASN Keto-reductase Domain pIC50” value in experiment [2] worked out at 6.26.

`CC1(C)N=C(c2ccc(-c3ccc4[nH]ccc4c3)cc2)N(C[C@@H]2CCN(C(=O)C3CC3)C2)C1=O` [Compound 1, (R)-2-(4-(1H-Indol-5-yl)phenyl)-1-((1-(cyclopropanecarbonyl)pyrrolidin-3-yl)methyl)-4,4-dimethyl-1H-imidazol-5(4H)-one]: the “Human FASN pIC50” value in experiment [1] stood at 7.32. The “FASN Keto-reductase Domain pIC50” value in experiment [2] came to 6.86.

In the case of `CC1(C)N=C(c2ccc(-c3ccc4cnccc4c3)cc2F)N(CC2CN(C(=O)C3CC3)C2)C1=O` [Compound 56, 1-((1-(cyclopropanecarbonyl)azetidin-3-yl)methyl)-2-(2-fluoro-4-(isoquinolin-6-yl)phenyl)-4,4-dimethyl-1H-imidazol-5(4H)-one], the “Human FASN pIC50” value in experiment [1] was 7.17. In addition, in experiment [2], the “FASN Keto-reductase Domain pIC50” value is 6.33.

Consider `Cn1cc(-c2ccc(-c3ccc(C4=NC(C)(C)C(=O)N4C[C@@H]4CCN(C(=O)C5CC5)C4)c(F)c3)cc2)cn1` [Compound 45, (R)-1-((1-(cyclopropanecarbonyl)pyrrolidin-3-yl)methyl)-2-(3-fluoro-4-(1-methyl-1H-pyrazol-4-yl)-[1,1′-biphenyl]-4-yl)-4,4-dimethyl-1H-imidazol-5(4H)-one], for which the “Human FASN pIC50” value in experiment [1] is recorded as 7.20. Further, in experiment [2], the “FASN Keto-reductase Domain pIC50” value is on record as 6.95.

With `CC1(C)N=C(c2ccc(-c3ccc4cccc(F)c4c3)cc2)N(CC2CN(C(=O)C3CC3)C2)C1=O` [Compound 40, 1-((1-(cyclopropanecarbonyl)azetidin-3-yl)methyl)-2-(4-(8-fluoronaphthalen-2-yl)phenyl)-4,4-dimethyl-1H-imidazol-5(4H)-one], the “Human FASN pIC50” value in experiment [1] came out at 6.75. For the same compound, the “FASN Keto-reductase Domain pIC50” value in experiment [2] came out at 6.46.

Consider `Cn1cc(-c2ccc(-c3ccc(C4=NC(C)(C)C(=O)N4CC4CN(C(=O)C5CC5)C4)cc3)cc2)cn1` [Compound 17, 1-((1-(cyclopropanecarbonyl)azetidin-3-yl)methyl)-4,4-dimethyl-2-(4′-(1-methyl-1H-pyrazol-4-yl)-[1,1′-biphenyl]-4-yl)-1H-imidazol-5(4H)-one], for which the “Human FASN pIC50” value in experiment [1] is reported as 6.26. For the same compound, the “FASN Keto-reductase Domain pIC50” value in experiment [2] amounted to 5.57.

In the case of `CC1(C)N=C(c2ccc(-c3nc4ccccc4o3)cc2)N(C[C@@H]2CCN(C(=O)C3CC3)C2)C1=O` [Compound 11, (R)-2-(4-(benzo[d]oxazol-2-yl)phenyl)-1-((1-(cyclopropanecarbonyl)pyrrolidin-3-yl)methyl)-4,4-dimethyl-1H-imidazol-5(4H)-one], the “Human FASN pIC50” value in experiment [1] is given as 6.20. Further, the “FASN Keto-reductase Domain pIC50” value in experiment [2] was found to be 5.41.

For the compound `Cc1cc(-c2ccc(-c3cnn(C)c3)cc2)ccc1C1=NC(C)(C)C(=O)N1C[C@@H]1CCN(C(=O)C2(C)CC2)C1` [Compound 84, (R)-4,4-dimethyl-2-(3-methyl-4′-(1-methyl-1H-pyrazol-4-yl)-[1,1′-biphenyl]-4-yl)-1-((1-(1-methylcyclopropanecarbonyl)pyrrolidin-3-yl)methyl)-1H-imidazol-5(4H)-one], the “Human FASN pIC50” value in experiment [1] is reported as 7.27. The “FASN Keto-reductase Domain pIC50” value in experiment [2] was 7.27.

In the case of `Cn1cc(-c2ccc(-c3ccc(C4=NC(C)(C)C(=O)N4C[C@@H]4CCN(C(=O)C5CC5)C4)cc3)cc2)cn1` [Compound 16, (R)-1-((1-(cyclopropanecarbonyl)pyrrolidin-3-yl)methyl)-4,4-dimethyl-2-(4′-(1-methyl-1H-pyrazol-4-yl)-[1,1′-biphenyl]-4-yl)-1H-imidazol-5(4H)-one], in experiment [1], the “Human FASN pIC50” value worked out at 6.99. Further, the “FASN Keto-reductase Domain pIC50” value in experiment [2] is recorded as 6.20.

`CC1(C)N=C(c2ccc(-c3c[nH]c4ccccc34)cc2)N(C[C@@H]2CCN(C(=O)C3CC3)C2)C1=O` [Compound 65, (R)-2-(4-(1H-indol-3-yl)phenyl)-1-((1-(cyclopropanecarbonyl)pyrrolidin-3-yl)methyl)-4,4-dimethyl-1H-imidazol-5(4H)-one]: the “Human FASN pIC50” value in experiment [1] was determined as 6.64. Also, the “FASN Keto-reductase Domain pIC50” value in experiment [2] amounted to 6.14.

For the compound `Cn1cc(-c2ccc(-c3ccc(C4=NC(C)(C)C(=O)N4CC4CN(C(=O)C5(O)CC5)C4)c(F)c3)cc2)cn1` [Compound 81, 2-(3-fluoro-4′-(1-methyl-1H-pyrazol-4-yl)-[1,1′-biphenyl]-4-yl)-1-((1-(1-hydroxycyclopropanecarbonyl)azetidin-3-yl)methyl)-4,4-dimethyl-1H-imidazol-5(4H)-one], the “Human FASN pIC50” value in experiment [1] came to 6.28. Moreover, the “FASN Keto-reductase Domain pIC50” value in experiment [2] is recorded as 6.10.

With `CC1(C)N=C(c2ccc(-c3c[nH]c4ccccc34)cc2F)N(C[C@@H]2CCN(C(=O)C3CC3)C2)C1=O` [Compound 63, (R)-1-((1-(cyclopropanecarbonyl)pyrrolidin-3-yl)methyl)-2-(2-fluoro-4-(1H-indol-3-yl)phenyl)-4,4-dimethyl-1H-imidazol-5(4H)-one], the “Human FASN pIC50” value in experiment [1] was found to be 7.16. Moreover, the “FASN Keto-reductase Domain pIC50” value in experiment [2] was 6.73.
